Measured values published in US20250154146A1, “PROTEIN DEGRADERS DEVELOPED ON BASIS OF BCL-2 FAMILY PROTEIN LIGAND COMPOUNDS AND USE THEREOF” (ShanghaiTech University, priority 2022, published 2025).

Tests used:
Format in all cases: cell-based
[1] = test system: Hedgehog (Hh) signaling pathway; experiment: Dual-luciferase reporter assay of Hedgehog activity in Light II cells; conditions: SAG stimulation, 36 h, dual-luciferase assay reporter kit, read-out: IC50 (nM) in Light II cells (inhibiting Hedgehog activity)
Procedure: Determination of the IC50 Values of Compounds Inhibiting Hedgehog Activity—Dual-Luciferase Reporter Assay:
Light II cells were NIH3T3 cell lines that stably express the Gli-luciferase and TK-renilla reporters. They were cultured with DMEM medium containing 10% (v/v) fetal bovine serum (FBS), 0.4 mg/ml G418, 0.15 mg/ml bleomycin (Zeocin), and penicillin/streptomycin at 37° C. in an incubator with 5% CO2. Light II cells in the logarithmic growth phase were seeded at a density of 2.5×10^4 cells/well in a 96-well plate. After 24h incubation, the cells were subjected to treatment with SAG with or without different concentrations of the compounds of the present disclosure for 36 h. After that, the Hedgehog activity was measured using the dual fluorescence reporter kit according to its instructions. The experiment had 3 replicates per group and was repeated at least three times.

Molt-4 cells = experiment: Thiazolyl blue cell proliferation assay in Molt-4 cells; conditions: Homo sapiens, Molt-4 acute lymphocytic leukemia cells, 72 hours, read-out: IC50 (nM) for inhibiting the proliferation of Molt-4 cells
Text: (§1) The cell lines RS4;11 (human acute lymphocytic leukemia cells), Molt-4 cells (human acute lymphocytic leukemia cells), MV4;11 (human myeloid monocytic leukemia cells), and Light II cells were commercially available or purchased from ATCC (American Type Culture Collection) and routinely cultured according to instructions.
3) Study on the proliferation inhibition effects induced by the compounds of the present disclosure designed based on ABT199/263 against BCL-XL-dependent Molt-4 cells:
(§2) The specific steps were as follows: Molt-4 cells were seeded at a density of 2×10^4 cells/well in 180 μL of serum-containing RPMI 1640 culture medium. DT2216 and the compounds of the present disclosure were added to the cell suspension at corresponding concentration gradients. DT2216 and DMSO were used as positive and vehicle control, respectively. The positive control and negative control were treated with the same treatment method as the compounds of the present disclosure. After treating the cells with the compounds of the present disclosure for 72 hours, thiazole blue solution (5 mg/mL) was added at 20 μL/well to the cell suspension, followed by incubation for 3 hours at 37° C. in an incubator with 5% CO2. Then, triple solution (0.1 g/mL SDS, 5% isopropyl alcohol, 10 mM hydrochloric acid) was added, followed by incubation for 4-6 hours at 37° C. in an incubator with 5% CO2. After confirming that all the crystal violets were dissolved under inverted biological microscopy, the absorbance was measured at 490 nm using an Epoch microplate reader (Biotek Corporation). The growth inhibition of the compounds of the present disclosure on the cells was plotted by GraphPad Prism 8 software, and the IC50 values of the compounds of the present disclosure were calculated therefrom. The experiment had 3 replicates per group and was repeated at least three times.

MV4;11 cells = experiment: Thiazolyl blue cell proliferation assay in MV4;11 cells; conditions: Homo sapiens, MV4;11 myeloid monocytic leukemia cells, 48 hours, read-out: IC50 (nM) for inhibiting the proliferation of MV4;11 cells
Text: as §1
2) Study on the proliferation inhibition effects induced by the compounds of the present disclosure designed based on ABT199/263 against BCL-XL-dependent MV4;11 cells:
as §2, with “MV4;11” for “Molt-4”, “90” for “180”, “IMDM” for “RPMI 1640”, “48” for “72”, “10 µL/well” for “20 μL/well”

RS4;11 cells = experiment: Thiazolyl blue cell proliferation assay in RS4;11 cells; conditions: Homo sapiens, RS4;11 acute lymphoblastic leukemia cells, 48 hours, read-out: IC50 (nM) for inhibiting the proliferation of RS4;11 cells
Text: as §1
1) Study on the proliferation inhibition effects induced by the compounds of the present disclosure designed based on ABT199/263 against BCL-XL-dependent RS4;11 cells:
as §2, with “RS4;11” for “Molt-4”, “3×10^4” for “2×10^4”, “90” for “180”, “RPMI-1640” for “RPMI 1640”, “48” for “72”, “10” for “20”
We conducted dose-dependent experiments on the designed and synthesized compounds of the present disclosure in RS4;11 cells, which are highly sensitive to BCL-XL inhibitors. The cells were treated with 7 different concentrations (starting at the highest concentration of 1000 nM or 100 nM; 10-fold serial dilutions) of the compounds for 48 hours, and then tested using the thiazolyl blue cell proliferation assay.

Structure (SMILES)	IC50 [1]	IC50 (Molt-4 cells)	IC50 (MV4;11 cells)	IC50 (RS4;11 cells)
C[C@H]1CN([C@H]2CC[C@@H](CNc3ccc(S(=O)(=O)NC(=O)c4ccc(N5CCN(CC6=C(c7ccc(Cl)cc7)CC(C)(C)CC6)CC5)cc4Oc4cnc5[nH]ccc5c4)cc3[N+](=O)[O-])CC2)CCN1Cc1ccc2c(c1)CN(C1CCC(=O)NC1=O)C2=O (stereo partly drawn) [BCL-03165, 2-((1H-pyrrolo[2,3-b]pyridin-5-yl)oxy)-4-(4-((4′-chloro-5,5-dimethyl-3,4,5,6-tetrahydro-[1,1′-biphenyl]-2-yl)methyl)piperazin-1-yl)-N-((4-((((cis)-4-((3S)-4-((2-(2,6-dioxopiperidin-3-yl)-1-oxoisoindolin-5-yl)methyl)-3-methylpiperazin-1-yl)cyclohexyl)methyl)amino)-3-nitrophenyl)sulfonyl)benzamide]	< 10 nM	< 10 nM	< 20 nM	< 20 nM
CC1(C)CCC(c2ccc(Cl)cc2)=C(CN2CCN(c3ccc(C(=O)NS(=O)(=O)c4ccc(N[C@H](CCN5CCN(Cc6ccc7c(c6)CN(C6CCC(=O)NC6=O)C7=O)CC5)CSc5ccccc5)c(S(=O)(=O)C(F)(F)F)c4)cc3)CC2)C1 (stereo partly drawn) [BCL-03177, 4-(4-((4′-chloro-4,4-dimethyl-3,4,5,6-tetrahydro-[1,1′-biphenyl]-2-yl)methyl)piperazin-1-yl)-N-((4-(((2R)-4-(4-((2-(2,6-dioxopiperidin-3-yl)-1-oxoisoindolin-5-yl)methyl)piperazin-1-yl)-1-(phenylthio)butan-2-yl)amino)-3-((trifluoromethyl)sulfonyl)phenyl)sulfonyl)benzamide]	< 10 nM	< 10 nM	< 20 nM	< 20 nM
C[C@@H]1CN([C@H]2CC[C@H](CNc3ccc(S(=O)(=O)NC(=O)c4ccc(N5CCN(CC6=C(c7ccc(Cl)cc7)CC(C)(C)CC6)CC5)cc4Oc4cnc5[nH]ccc5c4)cc3[N+](=O)[O-])CC2)CCN1Cc1ccc2c(c1)CN(C1CCC(=O)NC1=O)C2=O (stereo partly drawn) [BCL-03168, 2-((1H-pyrrolo[2,3-b]pyridin-5-yl)oxy)-4-(4-((4′-chloro-5,5-dimethyl-3,4,5,6-tetrahydro-[1,1′-biphenyl]-2-yl)methyl)piperazin-1-yl)-N-((4-((((trans)-4-((3R)-4-((2-(2,6-dioxopiperidin-3-yl)-1-oxoisoindolin-5-yl)methyl)-3-methylpiperazin-1-yl)cyclohexyl)methyl)amino)-3-nitrophenyl)sulfonyl)benzamide]	< 10 nM	< 10 nM	< 20 nM	< 20 nM
C[C@H]1CN([C@H]2CC[C@@H](CNc3ccc(S(=O)(=O)NC(=O)c4ccc(N5CCN(CC6=C(c7ccc(Cl)cc7)CC(C)(C)CC6)CC5)cc4Oc4cnc5[nH]ccc5c4)cc3[N+](=O)[O-])CC2)CCN1Cc1ccc2c(c1)C(=O)N(C1CCC(=O)NC1=O)C2=O (stereo partly drawn) [BCL-03190, 2-((1H-pyrrolo[2,3-b]pyridin-5-yl)oxy)-4-(4-((4′-chloro-5,5-dimethyl-3,4,5,6-tetrahydro-[1,1′-biphenyl]-2-yl)methyl)piperazin-1-yl)-N-((4-((((cis)-4-((3S)-4-((2-(2,6-dioxopiperidin-3-yl)-1,3-dioxoisoindolin-5-yl)methyl)-3-methylpiperazin-1-yl)cyclohexyl)methyl)amino)-3-nitrophenyl)sulfonyl)benzamide]	–	< 10 nM	< 20 nM	< 20 nM
CC1(C)CCC(CN2CCN(c3ccc(C(=O)NS(=O)(=O)c4ccc(NC[C@H]5CC[C@H](N6CCN(Cc7ccc8c(c7)C(=O)N(C7CCC(=O)NC7=O)C8=O)CC6)CC5)c([N+](=O)[O-])c4)c(Oc4cnc5[nH]ccc5c4)c3)CC2)=C(c2ccc(Cl)cc2)C1 (relative stereo) [BCL-03188, 2-((1H-pyrrolo[2,3-b]pyridin-5-yl)oxy)-4-(4-((4′-chloro-5,5-dimethyl-3,4,5,6-tetrahydro-[1,1′-biphenyl]-2-yl)methyl)piperazin-1-yl)-N-((4-((((trans)-4-(4-((2-(2,6-dioxopiperidin-3-yl)-1,3-dioxoisoindolin-5-yl)methyl)piperazin-1-yl)cyclohexyl)methyl)amino)-3-nitrophenyl)sulfonyl)benzamide]	–	< 10 nM	< 20 nM	< 20 nM
CC1(C)CCC(CN2CCN(c3ccc(C(=O)NS(=O)(=O)c4ccc(NC[C@H]5CC[C@H](N6CCN(Cc7cc(Br)c8c(c7)C(=O)N(C7CCC(=O)NC7=O)C8)CC6)CC5)c(S(=O)(=O)C(F)(F)F)c4)c(Oc4cnc5[nH]ccc5c4)c3)CC2)=C(c2ccc(Cl)cc2)C1 (stereo partly drawn) [BCL-03182, 2-((1H-pyrrolo[2,3-b]pyridin-5-yl)oxy)-N-((4-((((trans)-4-(4-((7-bromo-2-(2,6-dioxopiperidin-3-yl)-3-oxoisoindolin-5-yl)methyl)piperazin-1-yl)cyclohexyl)methyl)amino)-3-((trifluoromethyl)sulfonyl)phenyl)sulfonyl)-4-(4-((4′-chloro-5,5-dimethyl-3,4,5,6-tetrahydro-[1,1′-biphenyl]-2-yl)methyl)piperazin-1-yl)benzamide]	–	< 10 nM	< 20 nM	< 20 nM
Cc1ncsc1-c1ccc([C@H](C)NC(=O)[C@@H]2C[C@@H](O)CN2C(=O)[C@@H](NC(=O)CCCCCC(=O)N2CCN(CC[C@H](CSc3ccccc3)Nc3ccc(S(=O)(=O)NC(=O)c4ccc(N5CCN(CC6=C(c7ccc(Cl)cc7)CCC(C)(C)C6)CC5)cc4)cc3S(=O)(=O)C(F)(F)F)CC2)C(C)(C)C)cc1 [DT2216, reference compound]	–	17.3 ± 9.57 nM	165 ± 70.7 nM	81 ± 24.9 nM
